Assay results as given in patent US9840513B2 (AbbVie S.à.r.l., priority 2015, dated 2017).

Assays:
[1] = target: T1, F508delCFTR cell surface expression in CFBE41o-F508delCFTR-HRP cells (Homo sapiens, UniProt P13569, DEL508-508); assay: Cell Surface Expression-Horse Radish Peroxidase (CSE-HRP) Assay; assay type: cell-based; details: for EC50: CFBE41o-F508delCFTR-HRP cells, 18-24 hours at 33° C., 8-point curve, highest concentration 20 μM; for Maximum % activity (%): maximum at any tested concentration, normalized to on-plate positive control (3 μM)
T1 construct: fused on or other part: Horseradish peroxidase (HRP) reporter inserted in the fourth exofacial (extracellular) loop of CFTR; expression is doxycycline-inducible
Method in brief: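 Correctors incubated 18-24 h at 33 °C on doxycycline-induced (0.5 μg/mL, 72 h) CFBE41o-F508delCFTR-HRP cells, 3-fold series from 20 μM. After DPBS washes, luminol luminescence read; activity expressed relative to DMSO and a 3 μM positive control, EC50 fitted from triplicate plates.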

[2] = target: T2, F508delCFTR in primary hBE cells with F508del/F508del CFTR mutation (Homo sapiens, UniProt P13569, DEL508-508); assay: Transepithelial Clamp Circuit on Human Bronchial Epithelial Cells Conductance Assay (hBE-TECC); assay type: cell-based; details: for EC50: primary hBE cells F508del/F508del, 18-24 hours at 37° C., equivalent short circuit current, 6 concentrations
T2 construct: cells isolated from CF patients with the homozygous mutation; endogenous in cells; host or cells: primary human bronchial epithelial (hBE) cells from F508del/F508del CF patients
Excerpt: Transepithelial Clamp Circuit on Human Bronchial Epithelial Cells Conductance Assay:
A cell based assay using the primary human bronchial epithelial cells (hBE) was used as a secondary assay to test novel F508delCFTR correctors for their activity on primary hBE cells with F508del/F508del CFTR mutation. The assay used a TECC-24 (Transepithelial Clamp Circuit for 24 wells) instrument that measures the functionality of the mutated channel by measuring the equivalent short circuit current (Ieq) generated by the polarized epithelial cells. The instrument works by measuring the transepithelial potential difference (Vt) and transepithelial resistance (Rt) in an open circuit format, and the Ieq is calculated by using Ohms law (Ieq=Vt/Rt). The assay was run in a 24-well format and all 24-wells were measured at the same time point giving a higher throughput for this assay.
Primary human bronchial epithelial (hBE) cells from F508del/F508delCFTR patients were expanded from 1×10^6 to 250×10^6 cells (Neuberger T, Burton B, Clark H and VanGoor F; Cystic Fibrosis, Methods in Mole Biol 741; eds. Amaral M D and Kunzelmann K, 2011). For this purpose, cells isolated from CF patients with the homozygous mutation were seeded onto 24 well Corning (Cat #3378) filter plates that were coated with 3T3 conditioned media and grown at an air-liquid interface for 35 days using an Ultroser® G supplemented differentiation media. Apical surface mucus was removed 72 hours before the experiment using 3 mM dithiothreitol (DTT) in phosphate buffered saline (PBS). The apical surface was washed again 24 hours before the experiment using PBS. The cells were incubated with the desired dose response of the corrector compounds 18-24 hours at 37° C., 5% CO2. The corrector compounds are only added on the basolateral side of the epithelial cells.
On the day of measuring the corrector activity on the TECC, the cells were switched into a bicarbonate and serum free F-12 Coon's medium and allowed to equilibrate for 90 minutes in a CO2 free incubator. At the time of measurement, the apical and basolateral sides of the filter were bathed with the F-12 Coon's modification media (with 20 mM 4-(2-hydroxyethyl)-1-piperazineethanesulfonic acid (HEPES), pH 7.4 (using 1 M tris(hydroxymethyl)aminomethane (Tris)), and the measurements were made at 36.5° C. Transepithelial voltage (Vt) and transepithelial resistance (Rt) were measured using a 24 channel transepithelial current clamp (TECC-24). Current responses to the sequential addition of benzamil (apical 6 μM addition; for inhibiting epithelial ENaC channel), forskolin (apical and basolateral 10 μM addition; for activating the CFTR channel), control potentiator (N-(3-carbamoyl-5,5,7,7-tetramethyl-4,7-dihydro-5H-thieno[2,3-c]pyran-2-yl)-1H-pyrazole-5-carboxamide; apical and basolateral […] addition; for potentiating the CFTR channel) and bumetanide (basolateral 20 μM addition; for inhibiting the Na:2Cl:K co-transporter, an indirect measure of inhibiting the Cl-secretion driven by CFTR channel) were measured.
All plates contained negative controls (dimethyl sulfoxide, DMSO) which coupled with the control potentiator (N-(3-carbamoyl-5,5,7,7-tetramethyl-4,7-dihydro-5H-thieno[2,3-c]pyran-2-yl)-1H-pyrazole-5-carboxamide) sets the null response and positive controls (3 μM of 3-[(2R,4R)-4-({[1-(2,2-difluoro-1,3-benzodioxol-5-yl)cyclopropyl]carbonyl}amino)-7-methoxy-3,4-dihydro-2H-chromen-2-yl]benzoic acid) coupled with the control potentiator sets the 100% response to measure the correction of the mutated CFTR channel. The maximum percent activity is reported relative to the positive control value.
The % activity measured at each of the 6 test concentrations of the test compound was normalized to the on-plate positive control using the following formula: % activity=[[…]]*100 […]

[3] = relative to positive control (3 μM) coupled with control potentiator

T2 sequence (P13569 with tags, fused parts or gaps DEL508-508): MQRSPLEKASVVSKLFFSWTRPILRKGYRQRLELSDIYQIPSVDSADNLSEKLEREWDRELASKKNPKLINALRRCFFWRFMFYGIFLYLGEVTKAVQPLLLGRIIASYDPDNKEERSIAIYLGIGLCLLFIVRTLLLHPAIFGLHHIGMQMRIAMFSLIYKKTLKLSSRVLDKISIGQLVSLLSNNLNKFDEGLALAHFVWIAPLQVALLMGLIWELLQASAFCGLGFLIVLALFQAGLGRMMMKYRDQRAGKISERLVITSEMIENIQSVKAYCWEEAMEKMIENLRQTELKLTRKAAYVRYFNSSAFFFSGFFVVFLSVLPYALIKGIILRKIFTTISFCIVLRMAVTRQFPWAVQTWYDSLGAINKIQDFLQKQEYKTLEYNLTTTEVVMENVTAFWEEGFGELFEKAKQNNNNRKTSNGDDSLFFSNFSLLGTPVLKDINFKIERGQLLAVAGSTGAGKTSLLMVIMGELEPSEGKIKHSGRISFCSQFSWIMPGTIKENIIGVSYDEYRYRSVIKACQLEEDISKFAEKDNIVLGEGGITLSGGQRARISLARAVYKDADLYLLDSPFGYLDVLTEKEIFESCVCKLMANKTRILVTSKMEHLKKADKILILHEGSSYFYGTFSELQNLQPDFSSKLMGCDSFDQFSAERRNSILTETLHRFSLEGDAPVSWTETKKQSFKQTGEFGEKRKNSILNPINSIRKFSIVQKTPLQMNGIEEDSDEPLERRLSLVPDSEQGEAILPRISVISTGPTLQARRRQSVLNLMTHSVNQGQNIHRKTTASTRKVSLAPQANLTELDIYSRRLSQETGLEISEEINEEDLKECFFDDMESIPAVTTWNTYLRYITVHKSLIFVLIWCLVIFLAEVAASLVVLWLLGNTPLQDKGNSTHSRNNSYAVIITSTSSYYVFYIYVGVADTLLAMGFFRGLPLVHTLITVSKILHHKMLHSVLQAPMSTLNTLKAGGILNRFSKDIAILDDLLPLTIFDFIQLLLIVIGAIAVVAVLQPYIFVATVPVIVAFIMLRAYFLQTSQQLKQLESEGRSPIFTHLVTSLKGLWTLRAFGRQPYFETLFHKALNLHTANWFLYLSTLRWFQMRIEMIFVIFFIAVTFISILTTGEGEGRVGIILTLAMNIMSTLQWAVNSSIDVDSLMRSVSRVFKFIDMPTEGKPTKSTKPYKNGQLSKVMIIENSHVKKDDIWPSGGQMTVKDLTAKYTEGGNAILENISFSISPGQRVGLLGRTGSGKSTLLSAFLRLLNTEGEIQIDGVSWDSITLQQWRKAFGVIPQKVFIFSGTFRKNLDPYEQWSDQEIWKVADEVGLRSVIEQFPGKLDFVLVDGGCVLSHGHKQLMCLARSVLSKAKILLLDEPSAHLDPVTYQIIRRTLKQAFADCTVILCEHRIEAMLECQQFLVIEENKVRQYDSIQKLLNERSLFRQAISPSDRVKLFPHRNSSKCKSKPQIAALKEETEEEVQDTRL
T1 sequence (P13569 with tags, fused parts or gaps DEL508-508 limits assumed): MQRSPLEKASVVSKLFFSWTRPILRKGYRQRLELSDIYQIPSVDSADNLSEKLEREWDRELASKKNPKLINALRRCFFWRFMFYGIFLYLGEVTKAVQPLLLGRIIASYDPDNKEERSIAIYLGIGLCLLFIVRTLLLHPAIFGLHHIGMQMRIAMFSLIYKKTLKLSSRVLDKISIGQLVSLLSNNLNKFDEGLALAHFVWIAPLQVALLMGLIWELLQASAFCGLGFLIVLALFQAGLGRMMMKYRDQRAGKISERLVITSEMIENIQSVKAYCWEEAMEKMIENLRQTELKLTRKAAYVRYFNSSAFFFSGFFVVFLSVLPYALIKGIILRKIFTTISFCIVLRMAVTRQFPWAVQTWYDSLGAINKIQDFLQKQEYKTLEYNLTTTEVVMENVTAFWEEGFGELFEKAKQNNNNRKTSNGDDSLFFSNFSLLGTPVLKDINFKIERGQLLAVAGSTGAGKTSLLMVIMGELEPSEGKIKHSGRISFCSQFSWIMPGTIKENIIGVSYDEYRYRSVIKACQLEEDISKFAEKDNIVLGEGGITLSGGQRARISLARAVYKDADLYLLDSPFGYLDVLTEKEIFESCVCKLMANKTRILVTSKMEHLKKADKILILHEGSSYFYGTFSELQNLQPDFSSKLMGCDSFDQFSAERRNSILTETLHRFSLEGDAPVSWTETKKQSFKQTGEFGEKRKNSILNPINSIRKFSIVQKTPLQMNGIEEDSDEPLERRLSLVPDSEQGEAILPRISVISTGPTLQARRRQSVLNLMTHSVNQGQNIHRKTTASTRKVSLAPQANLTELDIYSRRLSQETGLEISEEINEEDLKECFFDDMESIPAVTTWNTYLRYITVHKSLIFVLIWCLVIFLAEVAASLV
T1 sequence (P13569 919-1480 limits assumed, stated change not applied): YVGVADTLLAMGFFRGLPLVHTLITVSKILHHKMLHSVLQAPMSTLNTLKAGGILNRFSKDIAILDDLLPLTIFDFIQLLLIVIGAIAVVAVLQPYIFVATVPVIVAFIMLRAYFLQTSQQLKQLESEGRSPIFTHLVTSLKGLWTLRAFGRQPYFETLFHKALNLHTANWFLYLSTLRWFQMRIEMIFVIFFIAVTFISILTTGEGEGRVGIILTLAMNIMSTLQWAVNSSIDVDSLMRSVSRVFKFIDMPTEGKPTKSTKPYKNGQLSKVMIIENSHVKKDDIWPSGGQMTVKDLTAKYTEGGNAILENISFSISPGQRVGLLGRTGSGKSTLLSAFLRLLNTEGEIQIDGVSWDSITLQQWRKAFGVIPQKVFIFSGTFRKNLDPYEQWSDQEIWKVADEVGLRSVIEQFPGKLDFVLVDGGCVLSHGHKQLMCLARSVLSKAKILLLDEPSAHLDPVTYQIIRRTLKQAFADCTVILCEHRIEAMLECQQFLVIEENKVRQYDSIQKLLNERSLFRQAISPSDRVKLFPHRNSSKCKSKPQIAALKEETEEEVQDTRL

SMILES	EC50 [1] [nM]	Maximum % activity (%) [1] [%]	Maximum % activity (%) ([2]; testing concentration 10 μM)	Maximum % activity (%) ([2]; testing concentration 3 μM)	EC50 [2] [nM]	Maximum % activity (%) [2, 3] [%]	Maximum % activity (%) ([2]; testing concentration 1 μM)
Cc1ccc(NC(=O)C2(C)CCc3c2ccc2c3OCO2)cc1-c1cccc(C(=O)O)c1 (centres unmarked) [Example 36, 2′-methyl-5′-[(6-methyl-7,8-dihydro-2H,6H-indeno[4,5-d][1,3]dioxole-6-carbonyl)amino][1,1′-biphenyl]-3-carboxylic acid]	1240	79	77				
COc1ccc2c(c1)O[C@@H](c1ccc(C(=O)O)cc1)C[C@H]2NC(=O)C1(C)COc2c1ccc1c2OC(F)(F)O1 (stereo partly drawn) [Example 39, 4-{(2R,4R)-4-[(2,2-difluoro-6-methyl-6,7-dihydro-2H-furo[2,3-e][1,3]benzodioxole-6-carbonyl)amino]-7-methoxy-3,4-dihydro-2H-1-benzopyran-2-yl}benzoic acid]	1260	106		47			
COc1ccc2c(c1)O[C@@H](c1ccc(C(=O)O)cc1)C[C@H]2NC(=O)[C@]1(C)CCc2c1ccc1c2OCO1 [Example 46, 4-[(2R,4R)-7-methoxy-4-{[(6R)-6-methyl-7,8-dihydro-2H,6H-indeno[4,5-d][1,3]dioxole-6-carbonyl]amino}-3,4-dihydro-2H-1-benzopyran-2-yl]benzoic acid]	430	142			220	105	
Cc1ccc(NC(=O)[C@@]2(C)COc3cc4c(cc32)OC(F)(F)O4)nc1-c1ccc(C(=O)O)cc1 [Example 83, 4-(6-{[(7R)-2,2-difluoro-7-methyl-6,7-dihydro-2H-furo[2,3-f][1,3]benzodioxole-7-carbonyl]amino}-3-methylpyridin-2-yl)benzoic acid]	240	172	100				
COc1ccc2c(c1)O[C@@H](c1ccc(C(=O)O)cn1)C[C@H]2NC(=O)[C@@]1(C)COc2cc3c(cc21)OC(F)(F)O3 [Example 89, 6-[(2R,4R)-4-{[(7R)-2,2-difluoro-7-methyl-6,7-dihydro-2H-furo[2,3-f][1,3]benzodioxole-7-carbonyl]amino}-7-methoxy-3,4-dihydro-2H-1-benzopyran-2-yl]pyridine-3-carboxylic acid]	10	112					84
C[C@]1(C(=O)Nc2cccc(N3CC[C@H](C(=O)O)C3)n2)COc2cc3c(cc21)OC(F)(F)O3 [Example 90, (3S)-1-(6-{[(7R)-2,2-difluoro-7-methyl-6,7-dihydro-2H-furo[2,3-f][1,3]benzodioxole-7-carbonyl]amino}pyridin-2-yl)pyrrolidine-3-carboxylic acid]	620	127					65
C[C@]1(C(=O)Nc2ccc(Cl)c(-c3cccc(C(=O)O)c3)n2)COc2cc3c(cc21)OC(F)(F)O3 [Example 95, 3-(3-chloro-6-{[(7R)-2,2-difluoro-7-methyl-6,7-dihydro-2H-furo[2,3-f][1,3]benzodioxole-7-carbonyl]amino}pyridin-2-yl)benzoic acid]	590	167					50
CC(C)(CO)c1cc2cc(NC(=O)[C@@]3(C)COc4cc5c(cc43)OC(F)(F)O5)c(F)cc2n1C[C@@H](O)CO [Example 130, (7R)—N-{1-[(2R)-2,3-dihydroxypropyl]-6-fluoro-2-(1-hydroxy-2-methylpropan-2-yl)-1H-indol-5-yl}-2,2-difluoro-7-methyl-6,7-dihydro-2H-furo[2,3-f][1,3]benzodioxole-7-carboxamide]	390	105			67	72	
C[C@]1(C(=O)Nc2cc3cc(C4(CO)CCC4)n(C[C@@H](O)CO)c3cc2F)COc2cc3c(cc21)OC(F)(F)O3 [Example 134, (7R)—N-{1-[(2R)-2,3-dihydroxypropyl]-6-fluoro-2-[1-(hydroxymethyl)cyclobutyl]-1H-indol-5-yl}-2,2-difluoro-7-methyl-6,7-dihydro-2H-furo[2,3-f][1,3]benzodioxole-7-carboxamide]	480	109			197	79	
C[C@]1(C(=O)Nc2cc3cc(C4(CO)COC4)n(C[C@@H](O)CO)c3cc2F)COc2cc3c(cc21)OC(F)(F)O3 [Example 135, (7R)—N-{1-[(2R)-2,3-dihydroxypropyl]-6-fluoro-2-[3-(hydroxymethyl)oxetan-3-yl]-1H-indol-5-yl}-2,2-difluoro-7-methyl-6,7-dihydro-2H-furo[2,3-f][1,3]benzodioxole-7-carboxamide]	2560	58			2700	62	
C[C@]1(C(=O)Nc2cc3cc(C4(CO)CC4)n(C[C@@H](O)CO)c3cc2F)COc2cc3c(cc21)OC(F)(F)O3 [Example 136, (7R)—N-{1-[(2R)-2,3-dihydroxypropyl]-6-fluoro-2-[1-(hydroxymethyl)cyclopropyl]-1H-indol-5-yl}-2,2-difluoro-7-methyl-6,7-dihydro-2H-furo[2,3-f][1,3]benzodioxole-7-carboxamide]	910	99			745	48	
CC(C)(CO)c1nc2cc(NC(=O)[C@@]3(C)COc4cc5c(cc43)OC(F)(F)O5)c(F)cc2n1C[C@@H](O)CO [Example 137, (7R)—N-{1-[(2R)-2,3-dihydroxypropyl]-6-fluoro-2-(1-hydroxy-2-methylpropan-2-yl)-1H-benzimidazol-5-yl}-2,2-difluoro-7-methyl-6,7-dihydro-2H-furo[2,3-f][1,3]benzodioxole-7-carboxamide]	2060	72			2580	67	
COc1ccc2c(c1)O[C@@H](c1cnc(C(=O)O)cn1)C[C@H]2NC(=O)[C@@]1(C)COc2cc3c(cc21)OC(F)(F)O3 [Example 144, 5-[(2R,4R)-4-{[(7R)-2,2-difluoro-7-methyl-6,7-dihydro-2H-furo[2,3-f][1,3]benzodioxole-7-carbonyl]amino}-7-methoxy-3,4-dihydro-2H-1-benzopyran-2-yl]pyrazine-2-carboxylic acid]	1330	157			550	78	
C[C@]1(C(=O)N[C@@H]2C[C@H](c3ccc(C(=O)O)cn3)Oc3cc(OC(F)(F)F)ccc32)COc2cc3c(cc21)OC(F)(F)O3 [Example 145, 6-[(2R,4R)-4-{[(7R)-2,2-difluoro-7-methyl-6,7-dihydro-2H-furo[2,3-f][1,3]benzodioxole-7-carbonyl]amino}-7-(trifluoromethoxy)-3,4-dihydro-2H-1-benzopyran-2-yl]pyridine-3-carboxylic acid]	3	118			0.831	91	
